Assay [1] concerns HCN cells.
For another assay, the system named is astrocytes. The assay is described as follows: Effect on non-neuronal cells: astrocytes. Format: cell-based. To be noted: same experimental condition as PC12 and HCN cells.
In assay [2] the test system is HCN cells. Kind of assay: FGF-2 induced neurite elongation in HCN cells. The format is cell-based. The conditions noted are these: HCN cells with FGF-2; 0.1, 0.5, 1, 100, 400 nM Ribavirin.
Assay [3] deals with PC12 cells. Kind of assay: Neurite outgrowth / elongation in PC12 cells. Format: cell-based, rat. As to the method: Neurite outgrowth was determined by measuring neurites from the cell body to the longest point and by counting the number of neurites per cell according to the method of Gysbers et al. (Gysbers et al., NeuroReport 3:997-1000 (1992) and Gysbers et al., Int. J. Dev. Neurosci. 14:19-34 (1996)). Cells are stained with antibodies for Rip, Glial Fibrillary Acidic Protein (GFAP), Microtubule Associated Protein 2ab (MAP2ab), and Calbindin (a Ca-buffering protein).
Briefly, cells were plated on poly-DL-ornithine-coated wells in 24-well plates at a concentration of 2.5×10^4 cells per well in RPMI-1640 medium containing 1.5% FCS, and 1.5% HS. Test compounds and NGF were added immediately after plating. […] The number of cells bearing neurites greater than one cell body diameter after each treatment with test compound was divided by the total number of cells counted.
The ratio of the number of cells bearing neurites in each treatment were divided by the total number of cells counted per treatment to determine the proportion of neurite bearing cells for each sample. The mean values (±S.E.M.) were then calculated for each treatment. […] The effect of the test compounds plus NGF is expressed as a percentage of the values obtained using 500 pg/ml NGF (which is given an arbitrary * value of 100% since neurite outgrowth proportions varied between experiments, usually from 20 to 35% for NGF-alone treatments). […]

In assay [4] the test system is PC12 cells. Kind of assay: Growth cone turning in PC12 cells. The format is cell-based, rat. The conditions noted are these: for growth cone turning: PC12 cells exposed to a focal site of compound, FIGS. 8A-8E. On the procedure:
The ability of compounds to stimulate neurite elongation as determined by growth cone turning was evaluated in vitro. PC 12 cells were cultured as described above (see Example 1). Cells growing in culture were exposed to a focal site of Ribavirin and control compounds and the number of growth cones with a turning angle was measured and the turned angle of each growth cone was measured.

Assay [5] has as its system PC12 cells. The assay is described as follows: Survival and proliferation of PC12 cells (cell counts). Format: cell-based, rat. As to the method:
PC12 cells were maintained in RPMI-1640 medium supplemented with 5% fetal calf serum (FCS), 5% heat-inactivated horse serum (HS), 100 units/ml penicillin G sodium, 100 μg/ml streptomycin sulfate and 0.245 μg/ml amphotericin B. NGF-treated cells were grown in the presence of 500 pg/ml mouse 2.5S NGF. The 1-(β-D-ribofuranosyl)-1H-1,2,4-triazole-3-carboxamide was supplied by ICN Pharmaceuticals. HCN cells were maintained in serum-free N2 basal media with 500 pg/ml of FGF-2. Cells were plated on plastic tissue culture plates coated with polyornithine.
PC12 cells were grown as described above and plated at a density of 10,000 cells/well in RPMI with 500 pg/ml NGF. […] Cells were counted and neurite elongation evaluated on days 0, 1 and 3. The media was not changed for the duration of the experiment.

A further assay has as its system Fibroblasts. The assay is described as follows: Effect on non-neuronal cells: fibroblasts. To be noted: same experimental condition as PC12 and HCN cells. The format is cell-based.

“Also recorded” adds a separate entry of the source.

In the case of `NC(=O)c1ncn([C@@H]2O[C@H](CO)[C@@H](O)[C@H]2O)n1` [Ribavirin, 1-(β-D-ribofuranosyl)-1H-1,2,4-triazole-3-carboxamide], the “concentrations at which effects were more pronounced” value in the assay on HCN cells [1] (HCN cells with FGF-2) is given as “less than 1 nM”. For the same molecule, the “effect on FGF-2 actions (proliferation, survival)” value in the assay with HCN cells [1] (HCN cells with FGF-2, up to 7 days, FIGS. 4 and 5) was “augmented/enhanced FGF-2 actions”. Besides, the “effect on cell survival or proliferation” value is given as “no effect” in the assay on HCN cells [1] (HCN cells, Ribavirin alone (no FGF-2), 12,500 or 25,000 cells/well, FIG. 3) and “No statistically significant effect” with PC12 cells [5] (PC12 cells, absence of NGF, various concentrations, FIG. 1). In the assay on astrocytes, the effect on astrocytes entry is reported as “without effect”. Besides, the “elongation and networking of the neurites” value in the assay on HCN cells [2] was “increased elongation and networking”. In addition, the “neurite elongation and networking” value in the assay with PC12 cells [3] (PC12 cells with NGF, 100 pM, 500 pM, 1 nM, 100 nM and 400 nM) was “enhanced at all concentrations tested”. Further, the “effective concentrations for growth cone turning” value in the assay on PC12 cells [4] (PC12 cells) is “nanomolar range”. The growth cone turning entry in the assay with PC12 cells [4] is “stimulated growth cone turning; also recorded: increased turning towards the Ribavirin site (attraction)”. For the same molecule, the “effects of NGF on the survival and proliferation of PC12 cells” value in the assay on PC12 cells [5] (with 500 pg/ml NGF, assessed at day 1 and day 3, FIG. 2) is on record as “augmented/enhanced”. The effect on fibroblasts result with Fibroblasts is on record as “without effect”.

For the molecule `Nc1nc2c(nc(Br)n2[C@@H]2O[C@@H]3COP(=O)(O)O[C@H]3[C@H]2O)c(=O)[nH]1` [8-bromo-cGMP], the growth cone turning result in the assay with PC12 cells [4] is recorded as “turning away from the site (i.e., repulsion”.

B1: NGF: nerve growth factor; mouse 2.5S NGF at 500 pg/ml (protein, UniProt P01139 122-241, looked up)
Beta-nerve growth factor: SSTHPVFHMGEFSVCDSVSVWVGDKTTATDIKGKEVTVLAEVNINNSVFRQYFFETKCRASNPVESGCRGIDSKHWNSYCTTTHTFVKALTTDEKQAAWRFIRIDTACVCVLSRKATRRG
modifications: Beta-nerve growth factor
notes: nerve growth factor; mouse 2.5S NGF at 500 pg/ml
Consider B1, for which the “neurite outgrowth proportions (proportion of neurite bearing cells)” value in the assay with PC12 cells [3] (NGF-alone treatments, 500 pg/ml NGF, varied between experiments) lay within 20 to 35%.

Values taken from patent publication US6680292B1 (The Salk Institute for Biological Studies, priority 1998, dated 2004).
